# Active and inactive are the calls of the source.
# Legend:
# [1] = target: Tyrosine-protein phosphatase non-receptor type 7 (Homo sapiens, UniProt P35236); assay: SAR analysis of chemical inhibitors of HePTP using a Fluorescent assay - Set 2. [Related pubchem assays (depositor defined):AID1059, AID1077, AID1661, AID2085, AID521]; type: functional
# [2] = target: Dual specificity protein phosphatase 3 (Homo sapiens, UniProt P51452); assay: SAR VHR1 Fluorescent Assay for In Vitro dose response studies Set 2. [Related pubchem assays (depositor defined):AID1654, AID1661, AID1878]; type: functional
# Cannabinoid receptor 1 [3] = target: T1, Cannabinoid receptor 1 (Homo sapiens, UniProt P21554); assay: SAR analysis of agonists of the Cannabinoid Receptor 1 using an Image-Based Assay - Set 2. [Related pubchem assays (depositor defined):AID2013, AID2026]; type: functional
# [4] = target: T2, G-protein coupled receptor 35 (Homo sapiens, UniProt Q9HC97); assay: SAR analysis of Agonists of the GPR35 Receptor using an Image-Based Assay - Set 2. [Related pubchem assays (depositor defined):AID2013, AID2026]; type: functional
# [5] = target: T2, G-protein coupled receptor 35; assay: SAR analysis of Antagonists of the GPR35 Receptor using an Image-Based Assay - Set 3. [Related pubchem assays (depositor defined):AID2013, AID2026]; type: functional
# Cannabinoid receptor 2 [6] = target: T3, Cannabinoid receptor 2 (Homo sapiens, UniProt P34972); assay: SAR analysis of antagonists of the Cannabinoid Receptor 2 using an Image-Based Assay. [Related pubchem assays (depositor defined):AID2013, AID2026]; type: functional
# Cannabinoid receptor 2 [7] = target: T3, Cannabinoid receptor 2; assay: SAR analysis of agonists of the Cannabinoid Receptor 2 using an Image-Based Assay. [Related pubchem assays (depositor defined):AID2013, AID2026]; type: functional
# Cytochrome P450 3A4 = Cytochrome P450 3A4 (Homo sapiens, UniProt P08684);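 further: CYP3A4 tested as one member of a cytochrome P450 panel screen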
# Cannabinoid receptor 1 [8] = target: T1, Cannabinoid receptor 1; assay: SAR analysis of antagonists of the Cannabinoid Receptor 1 using an Image-Based Assay - Set 2. [Related pubchem assays (depositor defined):AID2013, AID2026]; type: functional
# [9] = target: T4, G-protein coupled receptor 55 (Homo sapiens, UniProt Q9Y2T6); assay: GPR55 antagonist potency of analogs, SAR follow-up, imaging, U2OS, beta-arrestin-GFP, LPI agonist, set 2 (AID 2820); type: functional
# Cytochrome P450 2C19 = Cytochrome P450 2C19 (Homo sapiens, UniProt P33261); assay: Cytochrome panel assay with activity outcomes. Panel member name: p450-cyp2c19 Compounds with AC50 equal or less than 10 uM are considered active; type: functional; settings: read-out: AC50
# [10] = target: T4, G-protein coupled receptor 55; assay: GPR55 antagonists blocking LPI-driven arrestin recruitment, primary screen, imaging, U2OS, beta-arrestin-GFP, LPI agonist (AID 2013); type: functional;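 further: antagonist potency measured as reduced agonist-driven arrestin aggregation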
# T1 sequence (P21554 whole entry): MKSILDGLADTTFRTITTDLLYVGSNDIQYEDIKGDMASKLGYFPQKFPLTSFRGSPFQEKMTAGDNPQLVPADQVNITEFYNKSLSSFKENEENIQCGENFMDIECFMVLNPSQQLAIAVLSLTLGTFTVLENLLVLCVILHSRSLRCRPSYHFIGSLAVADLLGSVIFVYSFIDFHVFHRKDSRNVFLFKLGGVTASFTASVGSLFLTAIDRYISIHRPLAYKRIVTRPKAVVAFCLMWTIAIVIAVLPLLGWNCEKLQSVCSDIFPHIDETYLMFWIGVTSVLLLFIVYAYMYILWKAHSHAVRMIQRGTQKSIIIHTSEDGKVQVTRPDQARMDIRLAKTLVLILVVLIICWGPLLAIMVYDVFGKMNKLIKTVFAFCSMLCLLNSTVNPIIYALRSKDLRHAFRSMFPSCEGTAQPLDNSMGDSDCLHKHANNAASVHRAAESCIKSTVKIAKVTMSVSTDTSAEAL
# T3 sequence (P34972 whole entry): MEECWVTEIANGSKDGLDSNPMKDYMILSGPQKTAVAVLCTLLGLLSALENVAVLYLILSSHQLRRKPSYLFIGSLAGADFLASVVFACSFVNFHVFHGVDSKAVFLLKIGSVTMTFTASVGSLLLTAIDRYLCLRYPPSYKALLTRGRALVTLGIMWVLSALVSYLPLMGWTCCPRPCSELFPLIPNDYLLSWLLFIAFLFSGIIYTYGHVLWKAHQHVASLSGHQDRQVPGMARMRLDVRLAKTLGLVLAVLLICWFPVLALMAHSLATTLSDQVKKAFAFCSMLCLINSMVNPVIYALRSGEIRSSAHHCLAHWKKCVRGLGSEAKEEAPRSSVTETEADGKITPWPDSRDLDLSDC
# T2 sequence (Q9HC97 whole entry): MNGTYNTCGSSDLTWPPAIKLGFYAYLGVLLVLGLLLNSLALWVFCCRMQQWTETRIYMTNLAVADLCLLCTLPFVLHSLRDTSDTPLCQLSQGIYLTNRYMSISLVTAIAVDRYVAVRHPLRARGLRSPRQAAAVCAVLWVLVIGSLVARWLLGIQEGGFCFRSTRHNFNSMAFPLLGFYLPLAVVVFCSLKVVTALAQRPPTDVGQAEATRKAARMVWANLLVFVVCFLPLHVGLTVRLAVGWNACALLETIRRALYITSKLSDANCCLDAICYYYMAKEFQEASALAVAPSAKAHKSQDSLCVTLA
# T4 sequence (Q9Y2T6 whole entry): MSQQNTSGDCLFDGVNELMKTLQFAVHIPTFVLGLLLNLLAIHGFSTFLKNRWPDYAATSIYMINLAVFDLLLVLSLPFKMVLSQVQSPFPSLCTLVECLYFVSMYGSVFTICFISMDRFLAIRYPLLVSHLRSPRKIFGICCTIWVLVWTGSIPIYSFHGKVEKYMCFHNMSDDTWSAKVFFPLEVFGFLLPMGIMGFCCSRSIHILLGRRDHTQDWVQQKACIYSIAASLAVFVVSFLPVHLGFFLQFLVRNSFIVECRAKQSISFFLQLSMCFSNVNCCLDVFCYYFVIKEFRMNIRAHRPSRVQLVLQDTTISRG
# Chain of Tyrosine-protein phosphatase non-receptor type 7 (P35236 whole entry): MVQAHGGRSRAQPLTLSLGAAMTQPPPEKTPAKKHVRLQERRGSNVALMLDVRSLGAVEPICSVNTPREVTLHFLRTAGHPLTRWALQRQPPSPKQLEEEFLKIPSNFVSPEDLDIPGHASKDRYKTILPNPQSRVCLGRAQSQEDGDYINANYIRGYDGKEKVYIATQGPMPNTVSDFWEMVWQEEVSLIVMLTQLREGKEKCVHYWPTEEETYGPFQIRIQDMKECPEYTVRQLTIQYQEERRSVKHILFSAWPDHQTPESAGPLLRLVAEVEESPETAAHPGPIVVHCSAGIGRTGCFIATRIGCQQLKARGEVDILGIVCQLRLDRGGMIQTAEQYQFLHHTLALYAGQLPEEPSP
# Chain of Dual specificity protein phosphatase 3 (P51452 whole entry): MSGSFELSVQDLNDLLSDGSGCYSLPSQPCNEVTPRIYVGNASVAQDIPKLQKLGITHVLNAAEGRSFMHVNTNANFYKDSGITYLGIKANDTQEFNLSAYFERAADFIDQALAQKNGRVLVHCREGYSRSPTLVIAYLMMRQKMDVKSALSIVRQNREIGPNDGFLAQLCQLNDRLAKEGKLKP
# Chain of Cytochrome P450 2C19 (P33261 whole entry): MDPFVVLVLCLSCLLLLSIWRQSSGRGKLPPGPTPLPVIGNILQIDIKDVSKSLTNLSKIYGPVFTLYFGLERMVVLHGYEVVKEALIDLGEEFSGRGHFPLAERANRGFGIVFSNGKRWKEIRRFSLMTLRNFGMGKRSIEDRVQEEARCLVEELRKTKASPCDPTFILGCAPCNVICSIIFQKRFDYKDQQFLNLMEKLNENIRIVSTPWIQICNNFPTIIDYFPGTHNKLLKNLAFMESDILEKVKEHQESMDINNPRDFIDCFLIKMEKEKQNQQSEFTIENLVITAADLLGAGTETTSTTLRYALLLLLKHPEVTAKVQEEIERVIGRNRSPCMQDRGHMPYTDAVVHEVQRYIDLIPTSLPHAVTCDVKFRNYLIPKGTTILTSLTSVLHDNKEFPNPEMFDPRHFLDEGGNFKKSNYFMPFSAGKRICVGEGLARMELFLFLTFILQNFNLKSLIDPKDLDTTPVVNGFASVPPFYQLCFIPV
# Chain of Cytochrome P450 3A4 (P08684 whole entry): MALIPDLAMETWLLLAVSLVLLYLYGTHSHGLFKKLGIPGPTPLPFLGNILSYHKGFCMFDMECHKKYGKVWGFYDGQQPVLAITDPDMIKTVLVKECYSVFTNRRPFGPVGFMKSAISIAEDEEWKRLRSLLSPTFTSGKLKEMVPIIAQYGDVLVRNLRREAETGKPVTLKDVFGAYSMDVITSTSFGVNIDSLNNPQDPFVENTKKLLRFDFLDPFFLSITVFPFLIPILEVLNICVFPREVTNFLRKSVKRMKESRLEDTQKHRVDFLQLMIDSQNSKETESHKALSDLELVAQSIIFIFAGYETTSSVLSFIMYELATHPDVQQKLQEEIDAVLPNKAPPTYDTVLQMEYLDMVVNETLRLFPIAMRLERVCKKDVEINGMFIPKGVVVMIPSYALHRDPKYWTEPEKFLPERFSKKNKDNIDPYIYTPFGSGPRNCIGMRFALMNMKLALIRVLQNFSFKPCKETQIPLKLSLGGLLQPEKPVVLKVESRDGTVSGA
SMILES,IC50 [1],IC50 [2],EC50 (Cannabinoid receptor 1 [3]),EC50 [4],IC50 [5],IC50 (Cannabinoid receptor 2 [6]),EC50 (Cannabinoid receptor 2 [7]),AC50 (Cytochrome P450 3A4),IC50 (Cannabinoid receptor 1 [8]),IC50 [9],AC50 (Cytochrome P450 2C19),IC50 [10]
Nc1c(C(=O)N2CCOCC2)sc(=S)n1-c1ccccc1,> 100 µM (inactive),85.5 µM (active),,,,,,,,,,
Cc1cc(C)c2nc(-c3ccccn3)cc(C(=O)Nc3ccc(S(=O)(=O)Nc4cc(C)on4)cc3)c2c1,,,> 32 µM (inactive),> 32 µM (inactive),> 32 µM (inactive),> 32 µM (inactive),> 32 µM (inactive),17.8 µM (inconclusive),> 32 µM (inactive),0.709 µM (active),17.8 µM (inconclusive),1.82 µM (active)

# Reference: ChEMBL document CHEMBL1201862, “PubChem BioAssay data set” (2004)
